According to patent publication US9296755B2, “3,4-dihydro-1H-pyrimido[1,6-a]pyrimidin-6(2H)-one compounds and their therapeutic applications” (GlaxoSmithKline Intellectual Property Development Limited, priority 2013, dated 2016):

Experiments:
rat EAE model = assay: Rat experimental autoimmune encephalomyelitis (EAE) model, preventive treatment; type: in vivo; details: MBP immunization, administered day 0 to day 22
Method: (§1) A further study was carried out to study the impact of Lp-PLA2 inhibitors on modulating M1/M2 imbalance. In this study, rats were induced to develop experimental autoimmune encephalomyelitis (EAE) by immunization with myelin basic protein (MBP) antigen and treated with a known Lp-PLA2 inhibitor: 5-((9-Methoxy-4-oxo-6,7-dihydro-4H-pyrimido[6,1-a]isoquinolin-2-yl)oxy)-2-(3-(trifluoromethyl)phenoxy)benzonitrile (See PCT application no. PCT/CN2011/001597). In this preventive treatment model, the compound was administered at day 0 (day of immunization) and continued to administer until day 22. The study lasted for 25 days. Rats were subsequently monitored for symptoms of EAE. Rats were immunized with MBP to develop EAE and symptoms were monitored daily. Plasma Lp-PLA2 activity, OxLDL, and LysoPC concentration were determined at different time points through the course of EAE.

Lp-PLA2 [1] = target: T1, Lp-PLA2 (Rattus norvegicus, UniProt A6JJ35); assay: Plasma Lp-PLA2 activity and LysoPC in rat EAE plasma; type: in vivo
T1 construct: from tissue; host or cells: plasma of EAE rats
T1 sequence (A6JJ35 22-440): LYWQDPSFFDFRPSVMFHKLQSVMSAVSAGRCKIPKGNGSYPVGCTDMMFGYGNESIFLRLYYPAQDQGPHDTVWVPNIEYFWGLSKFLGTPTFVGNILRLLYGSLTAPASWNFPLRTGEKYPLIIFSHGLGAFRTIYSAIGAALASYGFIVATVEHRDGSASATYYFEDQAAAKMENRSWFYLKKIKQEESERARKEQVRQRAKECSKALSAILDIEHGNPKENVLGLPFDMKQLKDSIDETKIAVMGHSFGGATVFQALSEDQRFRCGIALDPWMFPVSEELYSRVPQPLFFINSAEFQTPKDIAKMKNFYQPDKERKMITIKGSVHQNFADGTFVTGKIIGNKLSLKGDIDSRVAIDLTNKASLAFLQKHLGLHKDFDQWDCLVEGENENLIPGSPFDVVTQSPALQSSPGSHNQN
Method: as §1

Lp-PLA2 [2] = assay: as above; type: in vivo
Method: as §1

[3] = test system: proinflammatory (M1) and anti-inflammatory (M2) markers; assay: Ex vivo analysis of M1 and M2 markers in macrophages of EAE rats by realtime PCR; design: species or system rat; details: splenic macrophages day 13 post MBP-immunization and CNS infiltrating macrophages
Method: Ex vivo analysis of proinflammatory (M1) and anti-inflammatory (M2) markers in control and compound treated EAE rats. Splenic macrophages were harvested at day 13 post MBP-immunization and assayed for expression of a variety of markers by realtime PCR. CNS infiltrating cells were harvested and macrophages were analyzed for expression of M1 and M2 markers by realtime PCR.

[4] = target: Recombinant human PLA2 VIIB (Homo sapiens, UniProt Q99487); assay: PLA2 VIIB assay; type: biochemical
Text: PLA2 VIIB (also known as Novel Serine Dependent Lipase, NSDL) is a serine hydrolase with 40% amino acid identity with human Lp-PLA2. Sequence comparisons indicate that the PLA VIIB active site catalytic triad positions are similar to those of Lp-PLA2. Similar to Lp-PLA2, it is capable of hydrolyzing oxidatively modified phospholipids and may be assayed using known Lp-PLA2 substrates.
Upon cleavage by a phopholipase, […] liberates a fluorescent Bodipy group. Recombinant human PLA2 VIIB is used as the phospholipase source in this assay, and compounds are screened to test their degree of inhibition in this assay. The assay is used to determine the degree of selectivity of the testing compounds between PLA2 VIIB and Lp-PLA2.
The PLA2 VIIB assay was applied as an unquenched 10 μL assay. The source plate containing the compounds is prepared by making 1:3 (by volume) serial dilution of the compounds with pure DMSO on 384-well microplate. 0.01 μL of compounds on the compound source plate were transferred into 384 well Greiner 784076 (black) plates by ECHO liquid dispenser. 5 μL of Novel Serine Dependent Lipase (NSDL) enzyme (5 nM NSDL in assay buffer of 50 mM HEPES, pH 7.4, 150 mM NaCl, 1 mM CHAPS) was added to each well. […] Plates were kinetic read by starting read immediately after PED6 addition at ex: 480/em:540 using ViewLux microplate reader or Envision spectrofluorimeters. […]

[5] = target: T2, recombinant human Lp-PLA2 (Homo sapiens, UniProt Q13093); assay: Recombinant human Lp-PLA2 assay (rhLp-PLA2, PED6 assay); type: biochemical; details: recombinant human Lp-PLA2, PED6 substrate; read-out: rhLp-PLA2 (PED6 assay) (pIC50) (converted)
T2 sequence (Q13093 22-441): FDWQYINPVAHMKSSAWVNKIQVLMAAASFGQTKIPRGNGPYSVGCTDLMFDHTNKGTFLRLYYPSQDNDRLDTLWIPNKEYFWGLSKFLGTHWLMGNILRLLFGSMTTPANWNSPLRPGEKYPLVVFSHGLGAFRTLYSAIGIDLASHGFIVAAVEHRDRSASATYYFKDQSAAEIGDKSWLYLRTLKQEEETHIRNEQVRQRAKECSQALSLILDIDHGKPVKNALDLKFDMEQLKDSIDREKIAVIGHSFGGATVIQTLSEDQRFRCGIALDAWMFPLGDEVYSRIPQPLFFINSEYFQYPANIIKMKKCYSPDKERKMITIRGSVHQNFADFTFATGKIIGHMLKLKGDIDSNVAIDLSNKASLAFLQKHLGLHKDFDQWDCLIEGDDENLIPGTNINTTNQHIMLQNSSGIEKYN
Text: (1) Recombinant Human Lp-PLA2 Assay (rhLp-PLA2) (Also Referred to as “PED6” Assay)
N-((6-(2,4-dinitrophenyl)amino)-hexanoyl)-2-(4,4-difluoro-5,7-dimethyl-4-bora-3a,4a-diaza-s-indacene-3-pentanoyl)-1-hexadecanoyl-sn-glycero-3-phosphoethanolamine, triethylammonium salt (PED6) is a commercially available fluorescently-labeled phospholipid, which is commercially available from Invitrogene and Molecular Probes. There is a quenching […] and a Bodipy fluorescein (FL) group in the sn2 position. Upon cleavage with Lp-PLA2, the Bodipy FL group is liberated and then may result in an increase in fluorescence. Inhibitors of Lp-PLA2 therefore prevent this cleavage and no fluorescent increase is observed.
The PED6 assay was run as an unquenched 10 μL assay. The source plate containing the compounds to be tested was prepared by making 1:3 (by volume) serial dilution of the compounds within DMSO on 384-well microplate. Then, 0.01 μL of the compounds on compound source plate were transferred into 384 well Greiner 784076 (black) plates using ECHO liquid dispenser. 5 μL of recombinant human Lp-PLA2 enzyme (4 nM (or 110 pM) rhLp-PLA2 in assay buffer of 50 mM HEPES, pH 7.4, 150 mM NaCl, 1 mM CHAPS) was added to each well of the plate. Plates were centrifuged for 10 sec at 500 rpm. After 30 minutes preincubation, 5 μL of substrate (4 μM (or 5 μM) PED6 [from 5 mM DMSO stock] in assay buffer of 50 mM HEPES, pH 7.4, 150 mM NaCl, 1 mM CHAPS) was added to 384 well Greiner 784076 (black) plates. Plates were centrifuged for 10 sec at 500 rpm. The plate was covered to protect it from light and incubated for 20 min at room temperature. The plates were read for fluorescence intensity at ex: 480/em: 540 using ViewLux microplate imager for Envision spectrofluroimeters. PIC50 data, curve and QC analysis was conducted by using XL fit module in Excel.

Lp-PLA2 in human plasma = target: T3, Lp-PLA2 in human plasma (Homo sapiens, UniProt Q13093); assay: Lp-PLA2 human plasma assay (Thio-PAF assay); type: biochemical; details: pooled human plasma; read-out: pIC50 in the thio-PAF assay (converted)
T3 construct: from tissue; host or cells: pooled human plasma
T3 sequence (Q13093 22-441): T2 sequence (Q13093 22-441)
Text: (3) Lipoprotein-Associated Phospholipase A2 (Lp-PLA2) Human Plasma Assay (Also Referred to as “Thio-PAF Assay”)
The human plasma assay utilizes a thioester analog of PAF (phosphatidylcholine), where hydrolysis yields to the formation of a phospholipid containing a free thiol group. The amount of thiol is quantitated continuously by reacting with CPM (7-diethylamino-3-(4′-maleimidylphenyl)-4-methylcoumarin), a maleimide which increases in fluoresence after Michael addition of thiols. This assay may detect the activity of Lp-PLA2 in human plasma, as determined by specific inhibition by Lp-PLA2 inhibitors.
The thio-PAF assay was run as a quenched 15 μL assay. Compounds source plate was prepared by making 1:3 (by volume) serial dilution of the compounds into pure DMSO on 384-well microplate. 0.01 μL of compounds on compound source plate were transferred to 384 well Greiner 784076 (black) low-volume plates by ECHO liquid dispenser. 8 μL pooled human plasma, which was previously aliquoted and frozen, was added. Plates were centrifuged for 10 sec at 500 rpm. After 30 minutes preincubation, 2 μL of substrate solution comprising 2.5 mM 2-thio-PAF [from ethanol stock], 32 μM CPM [from a DMSO stock] and 3.2 mM NEM (N-ethylmaleimide) [made fresh daily in DMSO] in assay buffer of 50 mM HEPES, pH 7.4, 150 mM NaCl, 1 mM CHAPS was added to 384 well Greiner 784076 (black) low-volume plates by BRAVO liquid handling station. After 2 mins, reaction was quenched with 5 μL of 5% aqueous trifluoroacetic acid (TFA). Plates were covered to protect from light and incubated for 40 min at room temperature. Plates were read at ex: 380/em: 485 using Envision microplate reader. PIC50 data, curve and QC analysis were conducted by using XLFit module in Excel.

SMILES	IC50 [5] [nM]	IC50 (Lp-PLA2 in human plasma) [nM]	also measured
COc1ccc2c(c1)CCn1c-2cc(Oc2ccc(Oc3cccc(C(F)(F)F)c3)c(C#N)c2)nc1=O [5-((9-Methoxy-4-oxo-6,7-dihydro-4H-pyrimido[6,1-a]isoquinolin-2-yl)oxy)-2-(3-(trifluoromethyl)phenoxy)benzonitrile]	–	–	clinical disease (EAE) (rat EAE model): reduction in clinical disease; Lp-PLA2 activity in rat EAE plasma (Lp-PLA2 [1]): decreased; LysoPC levels in rat EAE plasma (Lp-PLA2 [2]): decreased; M1 markers [3]: decrease; M2 markers [3]: increase
Cc1ccccc1CN1CCCn2c1cc(OCc1ccc(F)c(F)c1)nc2=O [Example E7, 8-((3,4-difluorobenzyl)oxy)-1-(2-methylbenzyl)-3,4-dihydro-1H-pyrimdo[1,6-a]pyrimidin-6(2H)-one]	–	–	selectivity between human recombinant Lp-PLA2 and PLA2 VIIB [4]: ≤ 100 fold
COc1ccc(CN2CCCn3c2cc(OCc2ccc(F)c(F)c2)nc3=O)cc1 [Example E4, 8-((3,4-difluorobenzyl)oxy)-1-(4-methoxybenzyl)-3,4-dihydro-1H-pyrimido[1,6-a]pyrimidin-6(2H)-one]	1	≤ 100	–
N#Cc1cc(COc2cc3n(c(=O)n2)CCCN3C2CC2)ccc1Oc1ccc(Cl)c(C(F)(F)F)c1 [Example E11, 2-(4-chloro-3-(trifluoromethyl)phenoxy)-5-(((1-cyclopropyl-6-oxo-2,3,4,6-tetrahydro-1H-pyrimido[1,6-a]pyrimidin-8-yl)oxy)methyl)benzonitrile]	0.794	≤ 100	–
CCCNC(=O)CN1CCCn2c1cc(OCc1ccc(F)c(F)c1)nc2=O [Example E13, 2-(8-((3,4-difluorobenzyl)oxy)-6-oxo-2,3,4,6-tetrahydro-1H-pyrimido[1,6-a]pyrimidin-1-yl)-N-propylacetamide]	3.16	≤ 100	–

Now from value to compound, other results behind:

IC50 [5] [nM]	IC50 (Lp-PLA2 in human plasma) [nM]	SMILES	also measured
0.794	≤ 100	O=C(CN1CCCn2c1cc(OCc1ccc(F)c(F)c1)nc2=O)N1CCOCC1 [Example E22, 8-((3,4-difluorobenzyl)oxy)-1-(2-morpholino-2-oxoethyl)-3,4-dihydro-H-pyrimido[1,6-a]pyrimidin-6(2H)-one]	–
0.2	≤ 100	O=C(CN1CCCn2c1cc(OCc1ccc(F)c(F)c1)nc2=O)N1CCC(F)(F)CC1 [Example E20, 8-((3,4-difluorobenzyl)oxy)-1-(2-(4,4-difluoropiperidin-1-yl)-2-oxoethyl)-3,4-dihydro-1H-pyrimido[1,6-a]pyrimidin-6(2H)-one]	–
